Assay [1] addresses T1, Long-chain-fatty-acid--CoA ligase 5 (Homo sapiens, UniProt Q9ULC5).
T1 sequence (Q9ULC5 whole entry): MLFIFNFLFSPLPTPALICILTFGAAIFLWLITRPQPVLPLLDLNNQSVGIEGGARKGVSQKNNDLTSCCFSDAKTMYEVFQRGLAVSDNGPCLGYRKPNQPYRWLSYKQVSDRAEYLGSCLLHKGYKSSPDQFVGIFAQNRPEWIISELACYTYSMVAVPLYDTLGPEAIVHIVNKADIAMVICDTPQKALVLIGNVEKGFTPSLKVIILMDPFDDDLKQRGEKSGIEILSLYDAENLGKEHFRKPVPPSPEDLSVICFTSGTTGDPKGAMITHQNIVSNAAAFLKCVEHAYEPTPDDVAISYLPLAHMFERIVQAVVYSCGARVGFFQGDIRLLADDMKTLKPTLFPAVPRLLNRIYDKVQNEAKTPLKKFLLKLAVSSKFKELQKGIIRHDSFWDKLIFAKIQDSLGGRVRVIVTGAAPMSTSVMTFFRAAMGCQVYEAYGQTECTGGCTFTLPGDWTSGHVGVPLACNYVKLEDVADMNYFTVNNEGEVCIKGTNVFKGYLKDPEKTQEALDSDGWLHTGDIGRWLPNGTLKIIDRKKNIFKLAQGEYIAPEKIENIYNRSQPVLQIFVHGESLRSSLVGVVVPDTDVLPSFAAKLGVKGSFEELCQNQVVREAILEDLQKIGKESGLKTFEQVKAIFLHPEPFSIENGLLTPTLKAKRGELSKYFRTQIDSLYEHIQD

Assay [2] deals with T2, Serine/threonine-protein kinase TAO2 (Homo sapiens, UniProt Q9UL54).
T2 sequence (Q9UL54 whole entry): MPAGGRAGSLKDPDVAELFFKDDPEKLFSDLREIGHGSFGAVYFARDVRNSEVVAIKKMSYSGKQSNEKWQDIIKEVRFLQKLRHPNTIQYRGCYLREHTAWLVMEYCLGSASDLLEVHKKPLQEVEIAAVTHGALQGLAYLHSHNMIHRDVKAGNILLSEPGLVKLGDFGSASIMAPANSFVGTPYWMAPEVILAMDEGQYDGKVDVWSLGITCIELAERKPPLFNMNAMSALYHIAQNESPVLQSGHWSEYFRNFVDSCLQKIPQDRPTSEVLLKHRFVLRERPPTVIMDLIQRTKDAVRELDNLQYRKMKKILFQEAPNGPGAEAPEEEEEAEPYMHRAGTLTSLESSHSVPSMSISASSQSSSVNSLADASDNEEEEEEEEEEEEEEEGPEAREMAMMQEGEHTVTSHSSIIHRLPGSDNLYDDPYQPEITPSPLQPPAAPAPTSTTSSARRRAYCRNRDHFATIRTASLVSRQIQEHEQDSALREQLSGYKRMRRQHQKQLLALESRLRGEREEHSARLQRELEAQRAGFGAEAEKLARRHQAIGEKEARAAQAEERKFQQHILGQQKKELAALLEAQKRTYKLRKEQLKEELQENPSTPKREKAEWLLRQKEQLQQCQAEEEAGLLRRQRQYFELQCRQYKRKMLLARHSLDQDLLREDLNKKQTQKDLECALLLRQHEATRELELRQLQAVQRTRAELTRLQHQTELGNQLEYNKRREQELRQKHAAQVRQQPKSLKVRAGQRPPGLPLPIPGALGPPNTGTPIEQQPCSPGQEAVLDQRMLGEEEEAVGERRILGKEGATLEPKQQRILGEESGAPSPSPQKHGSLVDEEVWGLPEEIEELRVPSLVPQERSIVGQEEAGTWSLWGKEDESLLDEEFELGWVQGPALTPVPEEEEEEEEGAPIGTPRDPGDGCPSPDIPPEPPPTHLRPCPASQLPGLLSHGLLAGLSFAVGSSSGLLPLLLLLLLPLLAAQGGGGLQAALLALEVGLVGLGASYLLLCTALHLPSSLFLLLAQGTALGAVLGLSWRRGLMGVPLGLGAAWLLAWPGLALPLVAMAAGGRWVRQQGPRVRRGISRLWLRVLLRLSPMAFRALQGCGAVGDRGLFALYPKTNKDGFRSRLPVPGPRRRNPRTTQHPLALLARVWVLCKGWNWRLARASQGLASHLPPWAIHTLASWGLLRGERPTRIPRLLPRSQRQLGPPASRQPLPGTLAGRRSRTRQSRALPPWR

Assay [3] has as its target T3, TGF-beta receptor type-1 (Homo sapiens, UniProt P36897).
T3 sequence (P36897 whole entry): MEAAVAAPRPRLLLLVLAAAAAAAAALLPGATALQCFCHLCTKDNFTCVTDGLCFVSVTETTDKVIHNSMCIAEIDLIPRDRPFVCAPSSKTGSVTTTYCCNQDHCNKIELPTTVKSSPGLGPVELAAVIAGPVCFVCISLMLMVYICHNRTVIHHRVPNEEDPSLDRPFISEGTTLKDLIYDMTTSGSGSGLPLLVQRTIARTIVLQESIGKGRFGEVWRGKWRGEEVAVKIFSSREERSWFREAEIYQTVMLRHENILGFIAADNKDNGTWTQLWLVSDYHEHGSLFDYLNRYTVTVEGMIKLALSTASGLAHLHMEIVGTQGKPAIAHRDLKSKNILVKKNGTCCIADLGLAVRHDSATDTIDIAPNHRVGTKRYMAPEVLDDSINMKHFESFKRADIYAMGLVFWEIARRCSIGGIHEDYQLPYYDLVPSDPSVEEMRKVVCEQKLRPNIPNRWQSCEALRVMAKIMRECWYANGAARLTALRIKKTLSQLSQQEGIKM

Active and inactive are the calls of the source. For most assays here, no stated cut-off is given here; in the data, actives have a measured Kd and inactives only a lower limit.

These results are taken from ChEMBL document CHEMBL3991601, “The target landscape of clinical kinase drugs” (Science, 2017).

What is called Kd is the concentration at which binding is half-saturated. On to `S=C(NCc1ccc2c(c1)OCO2)N1CCN(c2ncnc3c2oc2ccccc23)CC1` [AMUVATINIB], for which the Kd in assay [1], in assay [2] and in assay [3] was > 30 µM (inactive) in each case.
With `O[C@H]1CC[C@H](Nc2ncc3nc(Nc4c(F)cc(F)cc4F)n([C@H]4CCOC4)c3n2)CC1` [TANZISERTIB], the Kd in assay [1], in assay [2] and in assay [3] was > 30 µM (inactive) in each case.
For `COc1cccc2cc(-c3nc([C@H]4CC[C@H](C(=O)O)CC4)n4ncnc(N)c34)[nH]c12` [OSI-027], the Kd in assay [1] is > 30 µM (inactive); in assay [2] it was > 30 µM (inactive); in assay [3], 0.78 µM (active).
As for `Cn1c(=O)n(-c2ccc(C(C)(C)C#N)cc2)c2c3cc(-c4cnc5ccccc5c4)ccc3ncc21` [DACTOLISIB], the Kd in assay [1], in assay [2] and in assay [3] was > 30 µM (inactive) each time.
Take `O=c1[nH]c([C@@H]2CCCN2)nc2c1oc1ccc(Cl)cc12`: the Kd in assay [2] and in assay [3] was > 30 µM (inactive) throughout.
Consider `O=C(O)c1ccc2c(c1)nc(Nc1cccc(Cl)c1)c1ccncc12` [SILMITASERTIB], for which the Kd in assay [2] and in assay [3] was > 30 µM (inactive) throughout.
Turning to `c1cc(OCCN2CCCCC2)cc(-c2n[nH]c3ccc(-c4nc[nH]n4)cc23)c1` [CC-401], the Kd in assay [1], in assay [2] and in assay [3] was > 30 µM (inactive) each time.
Consider `COc1cc2ncnc(Nc3ccc(O)cc3)c2cc1OC` [WHI-P131], for which the Kd in assay [1], in assay [2] and in assay [3] was > 30 µM (inactive) in each case.
As to `O=C(Nc1ccc(OC(F)(F)F)cc1)c1sccc1NCc1ccnc2ccccc12` [OSI-930], the Kd in assay [1], in assay [2] and in assay [3] was > 30 µM (inactive) each time.
Consider `CNC(=O)c1ccc(Nc2ncc(C(F)(F)F)c(NCc3nccnc3N(C)S(C)(=O)=O)n2)cc1` [DEFACTINIB], for which the Kd in assay [1], in assay [2] and in assay [3] was > 30 µM (inactive) in each case.
As to `CC[C@@](C)(Nc1ccnc(-c2c[nH]c3ncccc23)n1)C(=O)NCC(F)(F)F` [DECERNOTINIB], the Kd in assay [1], in assay [2] and in assay [3] was > 30 µM (inactive) in each case.
For `O=S(=O)(c1cccc2c(O)nccc12)N1CCCNCC1` [HYDROXYFASUDIL], the Kd in assay [1] and in assay [2] was > 30 µM (inactive) throughout.
Take `CN(c1ncccc1CNc1nc(Nc2ccc3c(c2)CC(=O)N3)ncc1C(F)(F)F)S(C)(=O)=O` [PF-00562271]: the Kd in assay [1], in assay [2] and in assay [3] was > 30 µM (inactive) each time.
`CN1CCN(c2nc(C3=C(c4c[nH]c5ccccc45)C(=O)NC3=O)c3ccccc3n2)CC1` [SOTRASTAURIN]: the Kd in assay [1], in assay [2] and in assay [3] was > 30 µM (inactive) throughout.
On to `N#CCNC(=O)c1ccc(-c2ccnc(Nc3ccc(N4CCOCC4)cc3)n2)cc1` [MOMELOTINIB], for which the Kd in assay [1], in assay [2] and in assay [3] was > 30 µM (inactive) each time.
As for `COc1cc2c(Oc3ccc4[nH]c(C)cc4c3F)ncnc2cc1OCCCN1CCCC1` [CEDIRANIB], the Kd in assay [1] is 0.008 µM.
With `CCN1CCN(Cc2ccc(Nc3ncc(F)c(-c4cc(F)c5nc(C)n(C(C)C)c5c4)n3)nc2)CC1` [ABEMACICLIB], the Kd in assay [2] and in assay [3] was > 30 µM (inactive) each time.
As to `Cn1cnc2c(F)c(Nc3ccc(Br)cc3Cl)c(C(=O)NOCCO)cc21` [SELUMETINIB], the Kd in assay [1] is > 30 µM (inactive).
The same measure, in the same setting: under `COc1cc2c(N3CCN(C(=O)Nc4ccc(OC(C)C)cc4)CC3)ncnc2cc1OCCCN1CCCCC1` [TANDUTINIB] stands > 30 µM (inactive).
Consider `C=CC(=O)Nc1cc(Nc2nccc(-c3cn(C)c4ccccc34)n2)c(OC)cc1N(C)CCN(C)C` [OSIMERTINIB], for which the Kd in assay [2] and in assay [3] was > 30 µM (inactive) in each case.
For `C=CCN(/C=C1/C(=O)O[C@H](COC)[C@@]2(C)C1=C(O)C(=O)C1=C2[C@H](OC(C)=O)C[C@]2(C)C(=O)CC[C@@H]12)CC=C` [SONOLISIB], the Kd in assay [2] and in assay [3] was > 30 µM (inactive) in each case.
Turning to `CC1(C)CNc2cc(NC(=O)c3cccnc3NCc3ccncc3)ccc21` [MOTESANIB], the Kd in assay [1] is > 30 µM (inactive).
For the molecule `Cn1c(=O)c(F)c(Nc2ccc(I)cc2F)c2c(=O)n(C[C@@H](O)CO)cnc21` [TAK-733], the Kd in assay [2] and in assay [3] was > 30 µM (inactive) throughout.
With `CN(C)C/C=C/C(=O)Nc1cc2c(Nc3ccc(F)c(Cl)c3)ncnc2cc1O[C@H]1CCOC1` [AFATINIB], the Kd in assay [1] is > 30 µM (inactive).
Turning to `C=CC(=O)Nc1cccc(Nc2nc(Nc3ccc(N4CCN(C(C)=O)CC4)cc3OC)ncc2C(F)(F)F)c1` [ROCILETINIB], the Kd in assay [2] and in assay [3] was > 30 µM (inactive) throughout.
In the case of `CCc1cc2c(cc1N1CCC(N3CCOCC3)CC1)C(C)(C)c1[nH]c3cc(C#N)ccc3c1C2=O` [ALECTINIB], the Kd in assay [2] and in assay [3] was > 30 µM (inactive) throughout.
For the molecule `Cc1cc(Nc2nc(N[C@@H](C)c3ncc(F)cn3)ncc2Cl)n[nH]1` [AZD-1480], the Kd in assay [2] and in assay [3] was > 30 µM (inactive) each time.
On to `Cc1ccc(C(=O)Nc2ccc(Oc3cc4cnn(C)c4cc3-c3cn[nH]c3)c(F)c2)c(=O)n1-c1ccc(F)cc1` [MERESTINIB], for which the Kd in assay [2] and in assay [3] was > 30 µM (inactive) throughout.
As to `C[C@]1(O)C[C@@H](c2nc(-c3ccc4ccc(-c5ccccc5)nc4c3)c3c(N)nccn32)C1` [LINSITINIB], the Kd in assay [3] is > 30 µM (inactive).
`CC(C)CC(=O)Nc1[nH]nc2c1CN(C(=O)C1CCN(C)CC1)C2(C)C` [PHA-793887]: the Kd in assay [2] and in assay [3] was > 30 µM (inactive) in each case.
Turning to `O=C(NOC[C@H](O)CO)c1ccc(F)c(F)c1Nc1ccc(I)cc1F` [MIRDAMETINIB], the Kd in assay [2] and in assay [3] was > 30 µM (inactive) each time.
In the case of `COc1ccc(-c2ccc3ncc4c(c3c2)n(-c2ccc(N3CCNCC3)c(C(F)(F)F)c2)c(=O)n4C)cn1` [BGT-226 FREE BASE], the Kd in assay [2] and in assay [3] was > 30 µM (inactive) throughout.
